Test results as given in the supplement of paper PMC10307832.

Assays:
Assay in all cases: relative viability (nuclei count vs DMSO), 5 days (fraction); higher = more cells survive
[1] = system: 201T
In short: (§1)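 Relative viability is defined as nuclei in treated wells over nuclei in vehicle wells. Duplicate plates were run and medians reported. Lung cancer cell lines in 1536-well plates were dosed by pin tool one day after seeding, with one drug or with a fixed anchor-drug dose plus five library-drug doses (not always all listed) in √10 steps, and nuclei were counted after 5 days.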

[2] = system: COR-L 105
In short: as §1

[3] = system: ChaGo-K-1
In short: as §1

[4] = system: EKVX
In short: as §1

[5] = system: H3255
In short: as §1

[6] = system: HARA
In short: as §1

[7] = system: HCC-827
In short: as §1

[8] = system: HOP-62
In short: as §1

[9] = system: LCLC-103H
In short: as §1

[10] = system: LOU-NH91
In short: as §1

[11] = system: NCI-H1975
In short: as §1

## CCNC(=O)c1noc(-c2cc(C(C)C)c(O)cc2O)c1-c1ccc(CN2CCOCC2)cc1 [Luminespib] + Nc1nc2[nH]cc(CCc3ccc(C(=O)N[C@@H](CCC(=O)O)C(=O)O)cc3)c2c(=O)[nH]1 [Pemetrexed] (partner 0.2 µM)
[1]; first compound 0.002 µM
  relative viability: 0.333
[1]; first compound 0.006325 µM
  relative viability: 0.311
[1]; first compound 0.02 µM
  relative viability: 0.346
[1]; first compound 0.06325 µM
  relative viability: 0.359
[1]; first compound 0.2 µM
  relative viability: 0.206
[2]; first compound 0.002 µM
  relative viability: 1.11
[2]; first compound 0.006325 µM
  relative viability: 0.952
[2]; first compound 0.02 µM
  relative viability: 1.18
[2]; first compound 0.06325 µM
  relative viability: 0.593
[2]; first compound 0.2 µM
  relative viability: 0.24
[3]; first compound 0.002 µM
  relative viability: 0.27
[3]; first compound 0.006325 µM
  relative viability: 0.253
[3]; first compound 0.02 µM
  relative viability: 0.253
[3]; first compound 0.06325 µM
  relative viability: 0.248
[3]; first compound 0.2 µM
  relative viability: 0.206
[4]; first compound 0.002 µM
  relative viability: 0.417
[4]; first compound 0.006325 µM
  relative viability: 0.255
[4]; first compound 0.02 µM
  relative viability: 0.408
[4]; first compound 0.06325 µM
  relative viability: 0.258
[4]; first compound 0.2 µM
  relative viability: 0.115
[5]; first compound 0.002 µM
  relative viability: 0.579
[5]; first compound 0.006325 µM
  relative viability: 0.497
[5]; first compound 0.02 µM
  relative viability: 0.529
[5]; first compound 0.06325 µM
  relative viability: 0.536
[5]; first compound 0.2 µM
  relative viability: 0.335
[6]; first compound 0.002 µM
  relative viability: 0.253
[6]; first compound 0.006325 µM
  relative viability: 0.24
[6]; first compound 0.02 µM
  relative viability: 0.273
[6]; first compound 0.06325 µM
  relative viability: 0.172
[6]; first compound 0.2 µM
  relative viability: 0.135
[7]; first compound 0.002 µM
  relative viability: 0.22
[7]; first compound 0.006325 µM
  relative viability: 0.27
[7]; first compound 0.02 µM
  relative viability: 0.236
[7]; first compound 0.06325 µM
  relative viability: 0.159
[7]; first compound 0.2 µM
  relative viability: 0.158
[8]; first compound 0.002 µM
  relative viability: 0.314
[8]; first compound 0.006325 µM
  relative viability: 0.4
[8]; first compound 0.02 µM
  relative viability: 0.34
[8]; first compound 0.06325 µM
  relative viability: 0.156
[8]; first compound 0.2 µM
  relative viability: 0.125
[9]; first compound 0.002 µM
  relative viability: 0.441
[9]; first compound 0.006325 µM
  relative viability: 0.445
[9]; first compound 0.02 µM
  relative viability: 0.535
[9]; first compound 0.06325 µM
  relative viability: 0.486
[9]; first compound 0.2 µM
  relative viability: 0.472
[10]; first compound 0.002 µM
  relative viability: 0.426
[10]; first compound 0.006325 µM
  relative viability: 0.36
[10]; first compound 0.02 µM
  relative viability: 0.539
[10]; first compound 0.06325 µM
  relative viability: 0.339
[10]; first compound 0.2 µM
  relative viability: 0.324
[11]; first compound 0.002 µM
  relative viability: 0.315
[11]; first compound 0.006325 µM
  relative viability: 0.307
[11]; first compound 0.02 µM
  relative viability: 0.34
[11]; first compound 0.06325 µM
  relative viability: 0.137
